Data published in US20020198172A1, “Method of treating motor neuron diseases and demyelinating diseases with citicoline” (priority 1997, published 2002).
Read-outs that look alike come from different tables or passages of the source.

Tests used:
[1] = system: patient with chronic progressive multiple sclerosis; format: in vivo
From the text: (§1) Currently, they are diagnosed with chronic-progressive multiple sclerosis. They are afflicted with visual impairments, chronic fatigue, difficulty with speech articulation, tremors in the right and left hands, decreased fine motor movement in the right greater than left hands and decreased motor strength in their lower extremities. They are without weight bearing and is confined to a wheelchair. When asked what their major barriers are as far as functional abilities on a day to day basis, they place fatigue at the top of their impairment list followed by speech difficulties and decreased fine motor movement of their hands. They experienced marked spasticity of their lower extremities with the progression of their neurological condition over the course of several years and eventually resorted to a baclofen pump which was implanted in 1997. […] They receive 85 micrograms of baclofen per day.

[2] = system: experimental autoimmune encephalomyelitis; assay: EAE prevention therapy, daily functional score (Example 2); format: in vivo, female Lewis rats; settings: score 0 to 4
Protocol: Thirty-two female Lewis rats are divided into four groups of eight each and on day one administered saline, citicoline (500 or 1000 mg/kg, i.p.), or dexamethasone (0.0375 mg/kg), respectively. Dexamethasone acts as a positive control through its ability to suppress immune function. […] Therapy is continued daily. […] Numerical values are averages of the functional scores in each treatment group from Days 14-21 of the study.

patients = assay: Observed tolerance of citicoline in patients; format: in vivo, human; settings: doses about 250 mg to about 2000 mg for several weeks to several years
From the text: Dosages may be varied over time depending on the severity of symptoms, individual patient tolerance, route of administration and response to treatment. Treatment may be continued indefinitely if needed and if tolerated well.

[3] = system: patients with chronic multiple sclerosis; assay: Human study in chronic multiple sclerosis, EDSS and SNRS (Example 6); format: in vivo; settings: 250, 500, or 1,000 mg each patient each day orally or intravenously for six months; eight patients
Protocol: A study of two sets of four patients each with chronic multiple sclerosis is undertaken. Each patient is first examined for normal hepatic, renal, and bone marrow functioning to establish baseline values. Each of the patients in each group is then treated either with citicoline dissolved in sterile preservative-free isotonic saline 10% or oral tablet or capsule. The citicoline is administered orally or intravenously at a dosage of 250, 500, or 1,000 mg each patient each day for six months. Patients are examined on a daily basis. During the treatment period, daily blood counts and twice weekly blood chemistries are performed on each patient. The neurologic function of each of these patients is measured using the expanded Krutzke disability status scale (EDSS), and the Scripps neurologic rating scale (SNRS).

[4] = system: patients with bulbar palsy caused by ALS; assay: Human study in bulbar palsy caused by ALS (Example 7); format: in vivo; settings: 500-1000 mg citicoline daily
Protocol: Six patients with bulbar palsy caused by ALS are treated with 500-1000 mg each citicoline by injection (monosodium salt dissolved in 10 ml sterile isotonic solution of sodium chloride) or by a solid tablet or soft gel capsule orally and administered daily.

[5] = system: patients suffering from ALS; assay: Double-blind study against placebo in ALS, survival (Example 8); format: in vivo, human
Protocol: A double-blind study against placebo is performed as follows: 77 patients suffering from ALS are treated with 500 mg each citicoline by injection (monosodium salt dissolved in 10 ml sterile isotonic solution of sodium chloride) or be a solid tablet or soft gel capsule orally and administered daily, for a period of 12 to 18 months, and 78 patients receive a placebo. The results obtained are analyzed in terms of survival in the study, it being understood that “study drop-outs” (departures from the study) include individuals who actually die, and also individuals whose clinical state necessitates a tracheotomy or transfer to assisted ventilation.

[6] = system: patient with chronic progressive multiple sclerosis; assay: Case, chronic progressive multiple sclerosis, citicoline response (Example 13); format: in vivo, human
From the text: as §1

[7] = patient history since around 1986
[8] = dexamethasone 0.0375 mg/kg daily from day one
[9] = citicoline 500 mg/kg i.p. daily from day one
[10] = citicoline 1000 mg/kg i.p. daily from day one

## Nc1nc(Cl)nc2c1ncn2[C@H]1C[C@H](O)[C@@H](CO)O1 [Cladribine]
[1]; [7]
  effect of earlier treatment on multiple sclerosis: no effect

## NCC(CC(=O)O)c1ccc(Cl)cc1 (stereo not drawn) [baclofen]
[1]; baclofen pump, 85 micrograms per day
  ability to bear weight on lower extremities: lessened their ability to bear weight on their lower extremities
[1]; baclofen pump, continuous infusion into spinal fluid, 85 micrograms per day
  spasticity in lower extremities: reduced the spasticity considerably

## C[C@@H]1C[C@H]2[C@@H]3CCC4=CC(=O)C=C[C@]4(C)[C@@]3(F)[C@@H](O)C[C@]2(C)[C@@]1(O)C(=O)CO [Dexamethasone]
[2]; [8]
  Mean Functional Score Day 14: 0.14
  Mean Functional Score Day 15: 0.42
  Mean Functional Score Day 16: 0.0
  Mean Functional Score Day 17: 0.14
  Mean Functional Score Day 18: 0.28
  Mean Functional Score Day 19: 0.64
  Mean Functional Score Day 20: 0.57
  Mean Functional Score Day 21: 0.64

## C[N+](C)(C)CCOP(=O)(O)OP(=O)([O-])OC[C@H]1O[C@@H](n2ccc(N)nc2=O)[C@H](O)[C@@H]1O [citicoline, cytidine-5′-diphosphocholine]
[2]; [9]
  Mean Functional Score Day 14: 0.43
  Mean Functional Score Day 15: 0.41
  Mean Functional Score Day 16: 0.37
  Mean Functional Score Day 17: 0.38
  Mean Functional Score Day 18: 0.28
  Mean Functional Score Day 19: 0.59
  Mean Functional Score Day 20: 0.68
  Mean Functional Score Day 21: 0.87
[2]; [10]
  Mean Functional Score Day 14: 0.56
  Mean Functional Score Day 15: 0.78
  Mean Functional Score Day 16: 0.84
  Mean Functional Score Day 17: 0.69
  Mean Functional Score Day 18: 0.62
  Mean Functional Score Day 19: 0.91
  Mean Functional Score Day 20: 0.75
  Mean Functional Score Day 21: 0.84
patients
  patient tolerance: tolerate citicoline well
[3]
  toxic side effects: no evidence of any significant toxic side effects
[4]
  side effects of this treatment: insignificant
[5]; 500 mg citicoline daily for 12 to 18 months, 77 patients, placebo 50%
  patients who die (study drop-outs): 20%
[5]; subjects with early bulbar involvement or the bulbar form of ALS, 500 mg citicoline daily, placebo 65%
  patients who die (study drop-outs): 30%
[6]; 500 mg per day every morning, first two weeks
  adverse side effects: no adverse side effects
[6]; 1000 mg per day (500 mg a.m., 500 mg p.m.)
  balance and fatigue on the first two days of increased dosage: balance had been poor and that their fatigue had increased
[6]; 2000 mg per day (1000 mg a.m., 1000 mg p.m.)
  fatigue after dosage increase: worsening of fatigue in the morning hours for approximately two days

## ACTH: drug often used to treat ALS or MS (SYSMEHFRWGKPVGKKRRPVKVYPNGAEDESAEAFPLEF; Corticotropin; UniProt P01189 138-176, looked up)
[1]; [7]
  effect of earlier treatment on multiple sclerosis: worked initially

## Cn1cnc([N+](=O)[O-])c1Sc1ncnc2[nH]cnc12 [Imuran]
[1]; in vivo
  effect of earlier treatment on multiple sclerosis: no effect

## C[C@]12C=CC(=O)C=C1CC[C@@H]1[C@@H]2C(=O)C[C@@]2(C)[C@H]1CC[C@]2(O)C(=O)CO [Prednisone]
[1]; [7]
  effect of earlier treatment on multiple sclerosis: worked initially

## O=P1(N(CCCl)CCCl)NCCCO1 (stereo not drawn) [Cytoxan]
[1]; [7]
  course of earlier treatment, tolerability: discontinued due to adverse events
